Measurements reported in patent US5045566A, “Novel imidate insecticides” (ICI Americas Inc., priority 1989, dated 1991).

Key:
Format in all cases: in vivo
[1] = tested on: Rice water weevil [Lissorhoptrus oryzophilus (Kuschel)]; test: Rice water weevil topical (RWW), 48 hours; conditions: μg of test compound per weevil, female adults
Procedure: The compounds in Tables 1 and 2 above were tested for insecticidal activity using the following testing procedures. LC50 values, based on the results of these tests and calculated according to dosage-mortality curves, are expressed in Table 3.
Rice water weevil [Lissorhoptrus oryzophilus (Kuschel)]:
Test compounds were diluted in acetone. Droplets (1 ul) of test solutions were applied to the ventral abdomens of ten female adult weevils. The treated weevils were placed in containers with wet cotton balls and rice foliage. The containers were covered and kept at a temperature of about 25° C. Mortality was recorded after 48 hours. Test concentrations ranged from […] down to that at which 50% mortality occurred. The LC50 values are expressed below in Table 3 under the heading "RWW" in terms of μg of test compound per weevil.

[2] = tested on: Cabbage Looper [Trichoplusia ni (Hubner)]; test: Cabbage looper leaf dip (CL), 3-5 days; conditions: percent in solution, second-instar larvae
Procedure, shortened: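 Steps: dilute compound in 50-50 acetone-water from 0.1% downward; immerse cotyledon pieces 2-3 s and dry; place in humid petri dishes with five second-instar larvae; record mortality at 3-5 days. Dosage-mortality curves yield LC50 as percent in solution.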

[3] = tested on: Housefly [Musca domestica]; test: Housefly contact mortality in dishes (HF), 48 hours; conditions: μg of test compound per 25 female flies
Procedure, shortened: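 Residual contact test: acetone dilution, 0.01% peanut oil spreader, solvent evaporated; 25 ♀ flies (1-2 d old) per cage; sugar-water plug; 48 h mortality read. LC50 in μg/25 female flies, from dose-mortality curves; top dose 100 μg/25 flies.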

[4] = tested on: Black Bean Aphid [Aphis fabae (Scop.)]; test: Black bean aphid spray test on nasturtium (BBA), 48 hours; conditions: percent of test compound in sprayed solution
Procedure, shortened: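 LC50, given as percent test compound in the sprayed liquid, was calculated from dosage-mortality curves using concentrations from 0.05% downward. Sprays in 50:50 acetone-water went to runoff on ~5 cm nasturtiums carrying 25-50 aphids of mixed ages, one day after infestation. Deaths were counted 48 h later under greenhouse conditions.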

[5] = tested on: Aster Leafhopper [Macrosteles fascifrens (Stal)]; test: Aster leafhopper on dipped oat seedlings (LH), 48 hours; conditions: percent in solution, adults/nymphs
Procedure, shortened: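 Three ~10 cm oat seedlings per cup were dipped 2-3 seconds in 50-50 acetone-water compound solutions, dried, and caged with ten adult/nymph leafhoppers. Mortality was counted after 48 hours at concentrations from 0.05% downward. LC50, as percent compound in solution, came from dosage-mortality curves.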

[6] = tested on: Tobacco Budworm [Heliothis virescens (Fabricius)] eggs; test: Tobacco budworm eggs (TBW-E); conditions: percent in solution; 2-day old eggs
Procedure, shortened: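 Mortality of dipped eggs served as read-out, recorded after untreated controls hatched and began feeding. Treatments used acetone solutions from 0.1% downward, with eggs incubated at 78° F; LC50 is expressed as percent of compound in the solution.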

[7] = tested on: Maize weevil [Sitophilus zeamais (Motschulsky)]; test: Maize weevil on dipped corn seeds (MW), 48 hours; conditions: percent in solution, adult weevils
Procedure, shortened: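 LC50, given as percent of compound in dipping solution, comes from dosage-mortality curves over concentrations descending from 0.01%. Four corn seeds soaked 2-3 s in 50:50 acetone:water solution were dried and held with 10 adult weevils, about 25° C, mortality read after 48 h.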

[8] = tested on: Tobacco Budworm [Heliothis virescens (Fabricius)] larvae; test: Tobacco budworm larvae, contact (TBW-C), 5 days; conditions: percent in solution, second-instar larvae
Procedure, shortened: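 Cotton cotyledons dipped 2–3 s in compound in 50-50 acetone-water, dried, then infested with 5 second-instar larvae and held 5 days at high humidity. Mortality scored; LC50 from dosage-mortality curves, expressed as percent compound in solution, concentrations from 0.1% downward.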

[9] = tested on: Beet Armyworm (Spodoptera exigua); test: Beet armyworm leaf dip (BAW), 5 days; conditions: percent in solution; second-instar larvae; five days
Procedure, shortened: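 Sugar beet leaves dipped 2–3 s in compound diluted in 50:50 acetone-water, dried, then infested with five second-instar larvae in humid petri dishes. Mortality scored at 5 days; concentrations from 0.1% downward. LC50 from dosage-mortality curves, expressed as percent compound in solution.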

CC(C)C(=Nc1ccc(F)c(F)c1)OCc1ccc(F)c(Oc2ccc(Cl)cc2)c1 [Compound 295]
LC50 RWW [1]: > 2.5 µg
LC50 CL [2]: 0.00004%
LC50 HF [3]: 7.8 µg
LC50 BBA [4]: 0.0003%
LC50 LH [5]: 0.0001%
LC50 TBW E (eggs) [6]: 0.01%
LC50 MW [7]: 0.0053%
LC50 TBW C (contact) [8]: 0.0005%

CC(C)C(=Nc1ccc(F)c(Cl)c1F)OCc1ccc(F)c(Oc2ccccc2)c1 [Compound 451]
LC50 RWW [1]: 0.065 µg
LC50 CL [2]: 0.0001%
LC50 HF [3]: 3.6 µg
LC50 BBA [4]: 0.001%
LC50 LH [5]: 0.0002%
LC50 TBW E (eggs) [6]: > 0.1%
LC50 MW [7]: 0.0051%
LC50 TBW C (contact) [8]: 0.00025%

CC(C)C(=Nc1ccc(C(F)(F)F)cc1)OCc1cccc(Oc2ccccc2)c1 [Compound 68]
LC50 RWW [1]: 0.15 µg
LC50 CL [2]: 0.006%
LC50 HF [3]: 37 µg
LC50 BBA [4]: 0.0003%
LC50 LH [5]: 0.0001%
LC50 TBW E (eggs) [6]: 0.009%
LC50 MW [7]: > 0.01%

CC(C)C(=Nc1ccc(Cl)c(Cl)c1)OCc1ccc(F)c(Oc2ccc(Cl)cc2)c1 [Compound 296]
LC50 RWW [1]: 0.14 µg
LC50 CL [2]: 0.00025%
LC50 HF [3]: 38 µg
LC50 BBA [4]: 0.0003%
LC50 LH [5]: 0.0003%
LC50 TBW E (eggs) [6]: 0.025%
LC50 TBW C (contact) [8]: 0.00045%

CC(C)C(=Nc1ccc(C(F)(F)F)cc1)OCc1ccc(F)c(Oc2ccc(Cl)cc2)c1 [Compound 324]
LC50 RWW [1]: 0.06 µg
LC50 CL [2]: 0.00014%
LC50 HF [3]: > 100 µg
LC50 BBA [4]: 0.0003%
LC50 TBW E (eggs) [6]: 0.025%
LC50 BAW [9]: 0.0024%
LC50 TBW C (contact) [8]: 0.0004%

CC(C)C(=Nc1ccc(OC(F)(F)F)cc1)OCc1ccc(F)c(Oc2ccccc2)c1 [Compound 338]
LC50 RWW [1]: 0.044 µg
LC50 CL [2]: 0.000065%
LC50 HF [3]: 26 µg
LC50 BBA [4]: 0.0003%
LC50 TBW E (eggs) [6]: 0.01%
LC50 MW [7]: 0.0053%
LC50 TBW C (contact) [8]: 0.00037%

CC(C)C(=Nc1ccc(F)c(Cl)c1)OCc1cccc(Oc2ccc(F)cc2F)c1 [Compound 191]
LC50 RWW [1]: > 2.5 µg
LC50 CL [2]: 0.00023%
LC50 HF [3]: 29 µg
LC50 BBA [4]: 0.001%
LC50 LH [5]: > 0.05%
LC50 TBW E (eggs) [6]: 0.04%
LC50 MW [7]: 0.004%

CC(C)C(=Nc1ccc(F)c(Cl)c1F)OCc1ccc(F)c(Oc2ccc(F)cc2)c1 [Compound 330]
LC50 RWW [1]: 0.06 µg
LC50 CL [2]: 0.00012%
LC50 HF [3]: 5 µg
LC50 BBA [4]: 0.0001%
LC50 LH [5]: < 0.05%
LC50 TBW E (eggs) [6]: 0.037%
LC50 MW [7]: 0.001%
LC50 TBW C (contact) [8]: 0.00035%

CCC(=Nc1ccc(F)c(Cl)c1)OCc1cccc(Oc2ccccc2)c1 [Compound 85]
LC50 RWW [1]: > 2.5 µg
LC50 CL [2]: 0.004%
LC50 HF [3]: 7 µg
LC50 BBA [4]: 0.0017%
LC50 LH [5]: 0.003%
LC50 TBW E (eggs) [6]: > 0.1%
LC50 MW [7]: > 0.01%

FC(F)(F)c1cccc(N=C(OCc2cccc(Oc3ccccc3)c2)C(Cl)Cl)c1 [Compound 66, N-(3-Trifluoromethylphenyl)-O-(3-phenoxybenzyl)dichloroacetimidate]
LC50 RWW [1]: > 2.5 µg
LC50 CL [2]: < 0.0025%
LC50 HF [3]: 9.7 µg
LC50 BBA [4]: 0.0003%
LC50 LH [5]: 0.001%
LC50 TBW E (eggs) [6]: 0.06%
LC50 BAW [9]: 0.0065%

CC(C)C(=Nc1ccc2c(c1)OC(F)(F)O2)OCc1ccc(F)c(Oc2ccccc2)c1 [Compound 285]
LC50 RWW [1]: 0.13 µg
LC50 CL [2]: 0.000075%
LC50 HF [3]: 36 µg
LC50 TBW E (eggs) [6]: 0.005%
LC50 MW [7]: 0.005%
LC50 BAW [9]: 0.0006%
LC50 TBW C (contact) [8]: 0.00017%

CC(C)C(=Nc1ccc2c(c1)OCO2)OCc1ccc(F)c(Oc2ccccc2)c1 [Compound 181]
LC50 RWW [1]: > 2.5 µg
LC50 CL [2]: 0.0005%
LC50 HF [3]: 25 µg
LC50 TBW E (eggs) [6]: 0.01%
LC50 MW [7]: 0.005%
LC50 BAW [9]: 0.001%
LC50 TBW C (contact) [8]: 0.001%

CC(C)C(=Nc1ccc(F)cc1)OCc1ccc(F)c(Oc2ccc(Cl)cc2)c1 [Compound 325]
LC50 RWW [1]: > 2.5 µg
LC50 CL [2]: 0.00012%
LC50 HF [3]: 5 µg
LC50 BBA [4]: 0.0001%
LC50 TBW E (eggs) [6]: 0.037%
LC50 BAW [9]: 0.0025%
LC50 TBW C (contact) [8]: 0.0006%

CC(C)C(=Nc1ccc(F)c(Cl)c1)OCc1cccc(Oc2cccc(F)c2)c1 [Compound 125]
LC50 RWW [1]: > 2.5 µg
LC50 CL [2]: 0.0007%
LC50 HF [3]: 12 µg
LC50 BBA [4]: 0.05%
LC50 LH [5]: > 0.05%
LC50 TBW E (eggs) [6]: 0.025%
LC50 MW [7]: > 0.01%

CC(C)C(=Nc1ccc(F)c(C(F)(F)F)c1)OCc1ccc(F)c(Oc2ccccc2)c1 [Compound 300]
LC50 RWW [1]: 0.075 µg
LC50 CL [2]: 0.0003%
LC50 HF [3]: 14 µg
LC50 BBA [4]: 0.0003%
LC50 LH [5]: 0.00002%
LC50 TBW E (eggs) [6]: 0.024%
LC50 MW [7]: 0.01%
LC50 TBW C (contact) [8]: 0.001%

CC(C)C(=Nc1ccc(F)c(Br)c1)OCc1ccc(F)c(Oc2ccc(Cl)cc2)c1 [Compound 298]
LC50 RWW [1]: > 2.5 µg
LC50 CL [2]: 0.0001%
LC50 HF [3]: 13 µg
LC50 LH [5]: 0.0001%
LC50 TBW E (eggs) [6]: 0.015%
LC50 MW [7]: 0.008%
LC50 TBW C (contact) [8]: 0.0008%

CC(C)C(=Nc1ccc(Cl)c(Cl)c1)OCc1ccc(F)c(Oc2ccc(F)cc2)c1 [Compound 289]
LC50 RWW [1]: 0.082 µg
LC50 CL [2]: 0.00007%
LC50 HF [3]: 10 µg
LC50 BBA [4]: 0.0003%
LC50 LH [5]: 0.0003%
LC50 TBW E (eggs) [6]: 0.006%
LC50 MW [7]: > 0.01%

CC(C)C(=Nc1ccc(F)c(Cl)c1)OCc1cccc(Oc2ccc(F)cc2)n1 [Compound 461]
LC50 RWW [1]: > 2.5 µg
LC50 CL [2]: 0.00008%
LC50 HF [3]: 6 µg
LC50 BBA [4]: 0.001%
LC50 TBW E (eggs) [6]: 0.01%
LC50 MW [7]: 0.0075%
LC50 BAW [9]: 0.0035%

CC(C)C(=Nc1c(F)c(F)c(F)c(F)c1F)OCc1cccc(Oc2ccc(F)cc2)c1 [Compound 198]
LC50 RWW [1]: > 2.5 µg
LC50 CL [2]: 0.0005%
LC50 HF [3]: 52 µg
LC50 LH [5]: 0.05%
LC50 TBW E (eggs) [6]: > 0.1%
LC50 MW [7]: 0.003%

CC(C)C(=Nc1cccc(F)c1)OCc1ccc(F)c(Oc2ccc(Cl)cc2)c1 [Compound 375]
LC50 RWW [1]: > 2.5 µg
LC50 CL [2]: > 0.1%
LC50 HF [3]: 7.9 µg
LC50 BBA [4]: 0.0006%
LC50 TBW E (eggs) [6]: 0.04%
LC50 MW [7]: > 0.01%

CC(C)C(=Nc1ccc(F)c(Cl)c1F)OCc1cccc(Oc2ccc(Cl)cc2)c1 [Compound 331]
LC50 RWW [1]: > 2.5 µg
LC50 CL [2]: 0.0002%
LC50 HF [3]: 20 µg
LC50 BBA [4]: > 0.05%
LC50 TBW E (eggs) [6]: 0.04%
LC50 BAW [9]: 0.002%
LC50 TBW C (contact) [8]: 0.0004%

CC(C)C(=Nc1ccc(C(F)(F)F)c(Br)c1)OCc1ccc(F)c(Oc2ccc(Cl)cc2)c1 [Compound 433]
LC50 RWW [1]: 0.078 µg
LC50 CL [2]: 0.00017%
LC50 HF [3]: < 100 µg
LC50 BBA [4]: 0.0003%
LC50 TBW E (eggs) [6]: 0.02%
LC50 MW [7]: 0.005%
